ChEMBL document CHEMBL1201862, “PubChem BioAssay data set” (2004)
The source made the active and inactive calls.

Columns and labels:
Cytochrome P450 2C19 = Cytochrome P450 2C19 (Homo sapiens, UniProt P33261); assay: Cytochrome panel assay with activity outcomes. Panel member name: p450-cyp2c19 Compounds with AC50 equal or less than 10 uM are considered active; type: functional
[1] = biological target: T1, Heat shock factor protein 1 (Mus musculus, UniProt P38532); assay: decrease of HSF1-responsive luciferase luminescence – cell-based, NIH3T3, dose retest, confirmation (AID 2382); type: functional;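 note: NIH3T3 fibroblasts with HSF1-driven luciferase reporter stressed by proteasome inhibitor MG132; luminescence from HSF1-driven luciferase expression after 8 hours of MG132 stress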
T1 sequence (P38532 whole entry): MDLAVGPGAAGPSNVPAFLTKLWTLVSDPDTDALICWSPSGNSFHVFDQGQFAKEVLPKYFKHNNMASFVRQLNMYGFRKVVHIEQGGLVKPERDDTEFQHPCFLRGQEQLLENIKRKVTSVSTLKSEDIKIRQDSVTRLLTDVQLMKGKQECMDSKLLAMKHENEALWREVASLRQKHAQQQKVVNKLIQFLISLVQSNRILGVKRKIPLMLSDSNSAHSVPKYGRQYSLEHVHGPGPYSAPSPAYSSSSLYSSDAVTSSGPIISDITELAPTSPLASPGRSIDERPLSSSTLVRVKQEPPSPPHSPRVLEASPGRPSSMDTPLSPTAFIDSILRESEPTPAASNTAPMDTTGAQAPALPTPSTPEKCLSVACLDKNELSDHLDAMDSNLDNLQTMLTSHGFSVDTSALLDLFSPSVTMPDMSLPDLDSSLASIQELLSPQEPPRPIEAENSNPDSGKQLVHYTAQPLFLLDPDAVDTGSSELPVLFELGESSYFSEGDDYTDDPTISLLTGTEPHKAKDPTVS

Streptococcus = assay: GAS UMAA2166 growth inhibition – luminescence, BacTiterGlo, counter-screen for streptokinase expression inhibitor project, dose response (AID 1915); type: functional, organism-based;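 note: potency for reduction of bacterial viability or growth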
[2] = test system: Streptococcus sp. 'group A'; assay: Streptococcus pyogenes SK(-)GAS viability under kanamycin – luminescence, BacTiterGlo, confirmation, counter-screen for streptokinase expression inhibitor project, dose response (AID 1900); type: functional, organism-based
Cytochrome P450 3A4 = Cytochrome P450 3A4 (Homo sapiens, UniProt P08684);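 note: CYP3A4 tested as one member of a cytochrome P450 panel screen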
Cytochrome P450 2C9 = Cytochrome P450 2C9 (Homo sapiens, UniProt P11712)
[3] = Trypanosoma cruzi growth suppression in host cells – NIH3T3 host cells, beta-gal luminescence, confirmation (AID 2044); type: functional, cell-based;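 note: intracellular parasites grown in NIH/3T3 mouse fibroblasts as host cells; luminescent beta-galactosidase reporter signal from transgenic T. cruzi replicating inside host cells; inhibitors lower the luminescence signal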
[4] = NIH3T3 cell viability loss – ATP luminescence, mouse fibroblasts, counter-screen, dose response (AID 2010); type: functional, cell-based;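 note: cells exposed to compound for about 90 hours before reading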
Streptokinase A = biological target: T2, Streptokinase A (Streptococcus pyogenes serotype M1, UniProt P10520); assay: viability-normalized secreted streptokinase activity reduction – plasminogen activation absorbance, OD405, dose response (AID 1914); type: functional, Streptococcus pyogenes M1 GAS;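 note: secreted streptokinase activity via plasminogen activation per viability signal from cell pellet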
T2 sequence (P10520 whole entry): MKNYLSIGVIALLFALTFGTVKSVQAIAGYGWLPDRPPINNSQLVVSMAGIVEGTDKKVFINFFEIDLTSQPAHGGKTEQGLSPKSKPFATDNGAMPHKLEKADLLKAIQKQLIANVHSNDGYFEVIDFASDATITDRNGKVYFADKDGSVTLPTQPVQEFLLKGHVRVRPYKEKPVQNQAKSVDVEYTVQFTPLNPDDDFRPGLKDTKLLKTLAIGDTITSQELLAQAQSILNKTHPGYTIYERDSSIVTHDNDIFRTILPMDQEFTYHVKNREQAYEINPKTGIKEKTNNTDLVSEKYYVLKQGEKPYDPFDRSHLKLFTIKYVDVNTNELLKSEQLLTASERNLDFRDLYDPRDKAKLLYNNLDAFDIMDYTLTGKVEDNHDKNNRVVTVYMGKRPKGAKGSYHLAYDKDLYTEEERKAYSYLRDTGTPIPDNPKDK

Cytochrome P450 2C9, sequence (P11712 whole entry): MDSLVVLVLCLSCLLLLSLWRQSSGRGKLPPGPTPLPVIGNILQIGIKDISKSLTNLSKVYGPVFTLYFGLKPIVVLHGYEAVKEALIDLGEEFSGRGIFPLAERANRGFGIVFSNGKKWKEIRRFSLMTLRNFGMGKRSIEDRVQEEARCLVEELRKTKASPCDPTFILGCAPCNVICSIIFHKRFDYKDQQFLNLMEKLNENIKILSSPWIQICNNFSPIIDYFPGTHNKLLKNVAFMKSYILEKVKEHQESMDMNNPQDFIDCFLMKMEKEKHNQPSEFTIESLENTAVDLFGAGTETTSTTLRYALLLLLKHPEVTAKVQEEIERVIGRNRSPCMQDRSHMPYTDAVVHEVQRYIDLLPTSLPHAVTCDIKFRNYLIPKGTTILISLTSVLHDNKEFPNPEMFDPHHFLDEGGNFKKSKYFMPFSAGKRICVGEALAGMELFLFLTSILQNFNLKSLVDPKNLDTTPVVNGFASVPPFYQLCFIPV
Cytochrome P450 2C19, sequence (P33261 whole entry): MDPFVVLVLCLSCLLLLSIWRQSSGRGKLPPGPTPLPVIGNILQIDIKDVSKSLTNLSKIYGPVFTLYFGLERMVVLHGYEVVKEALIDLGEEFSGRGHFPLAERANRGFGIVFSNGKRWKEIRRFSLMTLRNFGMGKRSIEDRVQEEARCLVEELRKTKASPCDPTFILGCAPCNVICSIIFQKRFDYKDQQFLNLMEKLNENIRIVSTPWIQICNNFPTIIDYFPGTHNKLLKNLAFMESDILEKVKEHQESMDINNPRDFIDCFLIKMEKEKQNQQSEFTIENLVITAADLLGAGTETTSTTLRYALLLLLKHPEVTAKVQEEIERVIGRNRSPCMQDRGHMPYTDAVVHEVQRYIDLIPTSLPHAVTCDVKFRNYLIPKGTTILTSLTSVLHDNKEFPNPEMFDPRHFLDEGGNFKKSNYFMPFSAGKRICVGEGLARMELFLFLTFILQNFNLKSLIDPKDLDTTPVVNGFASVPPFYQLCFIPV
Cytochrome P450 3A4, sequence (P08684 whole entry): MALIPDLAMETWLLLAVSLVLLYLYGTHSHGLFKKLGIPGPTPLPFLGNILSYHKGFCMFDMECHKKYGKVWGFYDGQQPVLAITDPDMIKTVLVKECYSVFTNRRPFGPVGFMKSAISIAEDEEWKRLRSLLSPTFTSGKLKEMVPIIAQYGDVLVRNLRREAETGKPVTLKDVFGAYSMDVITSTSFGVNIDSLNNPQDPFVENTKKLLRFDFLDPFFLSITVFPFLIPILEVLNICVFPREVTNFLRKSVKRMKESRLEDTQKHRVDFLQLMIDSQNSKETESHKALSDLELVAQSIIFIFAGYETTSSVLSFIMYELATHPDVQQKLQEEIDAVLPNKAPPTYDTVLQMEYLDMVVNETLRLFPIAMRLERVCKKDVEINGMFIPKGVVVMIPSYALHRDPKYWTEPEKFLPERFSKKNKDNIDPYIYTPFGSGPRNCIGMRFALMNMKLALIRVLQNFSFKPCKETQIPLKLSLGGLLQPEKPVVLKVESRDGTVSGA

In the case of O=C(O)CSc1ccn(Cc2ccccc2)c1, the AC50 (Cytochrome P450 2C19) was “inconclusive”.

For CCOC(=O)n1c(SCC(N)=O)nc2ccccc21, the EC50 [1] was > 195 µM (not active).

For CC(=O)Oc1ccc2c(c1)CC[C@@H]1[C@@H]2CC[C@]2(C)[C@@H](O)CC[C@@H]12 [ESTRADIOL ACETATE], the EC50 [1] was > 195 µM (not active).

In the case of CC(=O)OCC1=C(C(=O)O)N2C(=O)C(NC(=O)Cn3nc(C(F)F)c(Cl)c3C)C2SC1 (stereo not drawn), the EC50 (Streptococcus) was 0.111 µM (active) and the EC50 [2] was < 0.06 µM (active).

For CCOC(=O)c1cccc(NC(=O)C2CCN(c3ncnc4c3nc3n4CCCCC3)CC2)c1, the EC50 [1] was > 195 µM (not active).

In the case of O=C(Oc1ccccc1)N1CCC[C@@]2(CCN(c3ncccn3)C2)C1, the AC50 (Cytochrome P450 3A4) was 15.8 µM (inconclusive).

For Oc1cc(CN2COc3ccccc32)c(O)cc1CNC1CCCCC1, the AC50 (Cytochrome P450 2C9) was 6.31 µM (inconclusive) and the AC50 (Cytochrome P450 2C19; read-out: AC50) was 1.26 µM (inconclusive).

For O=C(Nc1cc(Sc2ccccn2)cc([N+](=O)[O-])c1)c1cccc(Cl)c1, the EC50 [3] was 0.625 µM (active) and the EC50 [4] was > 60 µM (not active).

For COc1ccc(OC)c(NC(=O)NCc2cccnc2)c1, the EC50 (Streptococcus) was > 150 µM (not active), the EC50 [2] was > 150 µM (not active) and the EC50 (Streptokinase A) was > 150 µM (not active).

With COCCOC(=O)C1=C(C)N=C(C)/C(=C(/O)OC(C)C)C1c1cccc([N+](=O)[O-])c1 (stereo not drawn) the EC50 [3] was 1.31 µM (active) and the EC50 [4] was > 60 µM (not active).

With O=C(CCc1nc(-c2cccs2)no1)NCc1ccc(F)cc1Cl the EC50 [1] was > 195 µM (not active).

For C[C@@H](CCCCC(=O)Nc1ccc(C(F)(F)F)cc1)NCCc1c[nH]cn1, the AC50 (Cytochrome P450 2C19; read-out: AC50) was 15.8 µM (inconclusive).

With COc1ccc(-c2cc3nc(C)c(CCC(=O)NCc4ccc(F)cc4)c(C)n3n2)c(OC)c1 the EC50 [3] was 1.33 µM (active) and the EC50 [4] was > 60 µM (inconclusive).

For COC(=O)c1cc(C(=O)Nc2ccc(S(=O)(=O)NC(C)(C)C)cc2)cc([N+](=O)[O-])c1, the EC50 [3] was 0.797 µM (active) and the EC50 [4] was > 60 µM (inconclusive).

For Cc1[nH]c2ccccc2c1/C=C/c1nc2ccccc2c(=O)n1-c1cccc([N+](=O)[O-])c1, the EC50 [1] was > 195 µM (not active).

With NS(=O)(=O)c1ccc(/N=N\c2ccc(O)c(C(=O)O)c2)cc1 the AC50 (Cytochrome P450 2C9) was 1 µM (inconclusive).

In the case of Cc1cc(C)n(-c2cc(N3CCN(S(=O)(=O)c4ccc(C)c(C)c4)CC3)ccc2[N+](=O)[O-])n1, the AC50 (Cytochrome P450 2C9) was 2.24 µM (inconclusive).

For CCCCN(C)CC(O)Cn1cc(/C=C/C(=O)c2ccc(OCC)cc2)c2ccccc21 (stereo not drawn), the EC50 [3] was 0.154 µM (active) and the EC50 [4] was 6.17 µM (active).

For O=C(C1CCC(CNS(=O)(=O)c2cccc3cccnc23)CC1)N1CCCC1 (stereo not drawn), the EC50 [1] was > 195 µM (not active).

In the case of CCn1cnc2c1c(=O)n(CC(=O)Nc1cc(C)on1)c(=O)n2Cc1ccccc1, the EC50 (Streptococcus) was > 150 µM (not active), the EC50 [2] was > 150 µM (not active) and the EC50 (Streptokinase A) was > 150 µM (not active).

In the case of CCC(=O)n1nc(-c2cccnc2)nc1NCc1cccs1, the EC50 [1] was > 195 µM (not active).

With CCS(=O)(=O)c1nc(S(=O)(=O)c2ccc(C)cc2)c(NCCN2CCOCC2)s1 the EC50 (Streptococcus) was > 150 µM (not active), the EC50 [2] was > 150 µM (not active) and the EC50 (Streptokinase A) was > 150 µM (not active).

In the case of CCCCCC(=O)NNC(=O)c1c(O)c2ccccc2n(CC)c1=O, the EC50 (Streptococcus) was 19.1 µM (active), the EC50 [2] was 7.72 µM (active) and the EC50 (Streptokinase A) was > 50 µM (not active).

For COc1ccc(NC(=O)C23CC4CC(C2)CC(n2cnc(Br)n2)(C4)C3)c(C)c1, the AC50 (Cytochrome P450 3A4) was 14.1 µM (inconclusive).

With Clc1ccc(COn2c(-c3ccc(Cl)cc3)nc3ccccc32)cc1 the EC50 (Streptococcus) was 10.8 µM (active), the EC50 [2] was 8.35 µM (active) and the EC50 (Streptokinase A) was > 50 µM (not active).

In the case of COc1ccc(C(=O)N2CCC3(CCN(Cc4ccncc4)CC3)CC2)cc1, the AC50 (Cytochrome P450 2C9) was 7.94 µM (inconclusive).

With CCN(CC)c1ccc(CNc2nc3ccccc3n2CCN2CCOCC2)cc1 the EC50 [1] was > 195 µM (not active).

In the case of N#Cc1cccc(-c2cc(NCc3cccnc3)ncn2)c1, the AC50 (Cytochrome P450 2C19; read-out: AC50) was 15.8 µM (inconclusive).

With Cn1ncc(Cl)c1C(=O)N1CCC2(CC1)OCCO2 the EC50 (Streptococcus) was > 150 µM (not active), the EC50 [2] was > 150 µM (not active) and the EC50 (Streptokinase A) was > 150 µM (not active).
